Reference: the METLIN SMRT retention time set (Domingo-Almenara et al. 2019)

Test: gradient 5% acetonitrile 3 min, to 50% in 2 min, to 85% in 15 min, held 3 min, 100 µL/min
Settings: column: Zorbax Extend-C18 2.1 x 50 mm; eluents: water / acetonitrile, 0.1% formic acid
Summary of the method: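 Standards, all pure, were combined into mixtures of ~100 molecules and run at 100 μL/min on a Zorbax Extend-C18 column (2.1 × 50 mm, 1.8 μm) with water and acetonitrile, each containing 0.1% formic acid. A coupled quadrupole time-of-flight mass spectrometer operated in positive and negative ionization mode. Retention time values come from computationally picked adduct peaks, each inspected manually.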

RP-LC retention time | Structure (SMILES)
895 s | COCc1cc(=O)n(CC(=O)Nc2cc(Cl)ccc2C)c(N2CCOCC2)n1
848 s | COc1ccc(C(=O)N2CCCC2c2nc(-c3ccc(OC)c(OC)c3)no2)cc1 (stereo not drawn)
733 s | CCC(Oc1ccc(=O)n(-c2ccc(F)cc2)n1)C(=O)NCc1ccco1 (stereo not drawn)
609 s | O=C(NCc1ccc(F)cc1)C1(CCO)CCN(c2ncccn2)C1 (stereo not drawn)
752 s | Cc1ccc(-c2nc3n(CC(=O)N4CCCC4)c4c(c(=O)n3n2)CCC4)cc1
851 s | Cc1ccc2ncn(C3CCN(C(=O)Nc4ccc(C)c(F)c4)CC3)c(=O)c2c1
929 s | Cc1ccc2ncn(C3CCN(S(=O)(=O)c4ccccc4C)CC3)c(=O)c2c1
878 s | CCOc1ccc(S(=O)(=O)N2CCCC(C(=O)NCc3ccccc3)C2)cc1 (stereo not drawn)
827 s | O=C(Cn1nc2c(N3CCOCC3)nccn2c1=O)Nc1cc(C(F)(F)F)ccc1Cl
622 s | COc1ccc(C2(C(=O)N3CCCC(CO)CCNC(=O)CC3)CC2)cc1 (stereo not drawn)
761 s | Cc1ccc(C(C)NC(=O)c2ccc(CN3CCN(C(C)C)C(=O)C3=O)cc2)c(C)c1 (stereo not drawn)
705 s | Cc1ccc(-c2cc3c(=O)n(Cc4noc(CN5CCCC(C)C5)n4)ccn3n2)cc1 (stereo not drawn)
918 s | COc1cc(F)ccc1-c1ccnc2nc(-c3cccs3)nn12
730 s | O=C(CCc1c(-c2ccc(F)cc2)nc2ccccn12)Nc1cccc(Cl)c1
1130 s | O=C(Cc1ccc(Cl)cc1)N1CCc2nc(-c3ccc(Cl)cc3)ncc2C1
640 s | COc1ccc(NC(=O)CC2=C3CCCCC3NC2=O)cn1 (stereo not drawn)
772 s | Cc1csc(-c2ccc(CNC(=O)c3ccnn3C)cc2)n1
779 s | CN1C(=O)CCc2cc(NS(=O)(=O)c3ccccc3C(F)(F)F)ccc21
1050 s | COc1ccc(N2CC(c3noc(-c4cc(Cl)ccc4F)n3)CC2=O)cc1 (stereo not drawn)
849 s | CCCc1noc(-c2ccnc(-n3cnc(C(=O)NC(C)C)c3)c2)n1
858 s | O=C(Nc1cccc(Cl)c1)N1CCC(n2cnc3cc(F)ccc3c2=O)CC1
644 s | COc1ccc(NC(=O)Cn2c(N3CCOCC3)nc(C)cc2=O)cc1F

RP-LC retention time | Structure (SMILES)
1060 s | Cc1nc(-c2csc(S(=O)(=O)N3CCC(C(=O)NCCc4ccccc4)CC3)c2)no1
609 s | Cc1cccc(NC(=O)c2cn3c(n2)CCCC3)c1
573 s | Cc1ccc(Cl)cc1NC(=O)N1CCC(c2nc3ccncc3n2C(C)C)C1 (stereo not drawn)
688 s | Cc1cccc(C(=O)N2CC(C)C(=O)Nc3ccccc32)c1 (stereo not drawn)
606 s | CC(C)CN1CCN(C(=O)c2cn3ccnc(-c4ccccc4)c3n2)CC1
888 s | CCc1ccc(C2=C(C)C(N3CCCN(C(=O)C(C)CC)CC3)=NS2(=O)=O)cc1 (stereo not drawn)
860 s | CCN1c2ccccc2C(=O)NC12CCN(C(=O)Nc1ccc(C)c(C)c1)CC2
559 s | Cc1ccc(C(=O)NCCc2cn3ccsc3n2)cc1[N+](=O)[O-]
1050 s | O=C(Nc1cccc(F)c1)C1CCCN(c2nc3ccsc3c(=O)n2Cc2ccc(F)cc2)C1 (stereo not drawn)
952 s | COc1ccc(NC(=O)Cn2c(C)cc(-c3nnc(-c4ccc(F)cc4)o3)c2C)cc1
697 s | COC(=O)c1ccccc1S(=O)(=O)Nc1ccc2c(c1)CCC(=O)N2
740 s | CC(C)Cn1c(=O)c(N2CCN(S(=O)(=O)Cc3ccccc3)CC2)nc2ccncc21
1080 s | CCOc1ccc(-c2noc(C3CC(=O)N(c4ccc(C)cc4)C3)n2)cc1 (stereo not drawn)
994 s | CCCn1c(=O)sc2cc(S(=O)(=O)N3CCC(C(=O)N4CCC(C)CC4)CC3)ccc21
943 s | COc1cccc(CNC(=O)CN2C(=O)NC3(CCC(C(C)(C)C)CC3)C2=O)c1OC (stereo not drawn)
752 s | Cc1cc(NC(=O)CSc2ccc(-c3cccc([N+](=O)[O-])c3)nn2)no1
1130 s | O=C(COc1ccccc1Br)Nc1nc(-c2ccccc2)cs1
842 s | CCCn1c(=O)c2cc(C(=O)NCc3ccc(N4CCOCC4)cc3)nn2c2ccccc21
664 s | O=C(NCC1CC(=O)N(c2ccc3c(c2)OCO3)C1)c1ccccc1F (stereo not drawn)
997 s | COc1cccc(-c2ccc(=O)n(Cc3nc(-c4ccccc4Br)no3)n2)c1
925 s | COc1ccc(Cn2nnc(C(=O)NCc3ccco3)c2-n2cccc2)cc1
831 s | Cc1nc2cccnc2n1CC1CCCN(S(=O)(=O)c2ccc3c(c2)CCCC3)C1 (stereo not drawn)

RP-LC retention time | Structure (SMILES)
574 s | Cn1c(=O)c(C(=O)NC2CCN(Cc3ccccc3)CC2)nc2cccnc21
815 s | CCn1cnc2ccc(-c3noc(COc4ccc(Cl)cc4)n3)cc21
685 s | CCNC(=O)C1CCCN(c2nc3ncn(CC(=O)Nc4cc(F)ccc4F)c(=O)c3s2)C1 (stereo not drawn)
595 s | O=C(c1cc(-c2ccccc2)n[nH]1)N1CCN(c2ccc(N3CCOCC3)nn2)CC1
887 s | O=C1CCCC(=O)N1CCS(=O)(=O)N1CCN(c2cccc(Cl)c2Cl)CC1
983 s | Cc1nc(-c2csc(S(=O)(=O)N3CCCC(C(=O)NCc4ccccc4C)C3)c2)no1 (stereo not drawn)
611 s | CCOC(=O)CNC(=O)N1CCN(Cc2nc3cccnc3n2-c2ccc(C)cc2)CC1
806 s | COc1ccccc1NC(=O)N1CCC2(CC1)NC(=O)c1ccc(Cl)cc1N2C
831 s | CN1c2cc(Cl)ccc2C(=O)NC12CCN(C(=O)Nc1cccc(F)c1)CC2
1170 s | CCOc1nc2ccccc2nc1N1CCCC(C(=O)NC2CCCCC2)C1 (stereo not drawn)
862 s | CCOCCOC(=O)C1=C(C)NC2=C(C(=O)C(C(=O)OC)C(C)C2)C1c1ccccc1F (stereo not drawn)
615 s | CC(=O)N1CCc2ccc(NS(=O)(=O)CCN3C(=O)CCCC3=O)cc21
675 s | COc1cc(NC(=O)Cc2cn3cc(Cl)ccc3n2)c(OC)cc1Cl
709 s | COc1ccc2nc(NC3=NCN(CCc4ccc(OC)c(OC)c4)CN3)nc(C)c2c1
570 s | O=C(Cn1cnc(-c2cccs2)cc1=O)NCc1nc2ccccc2[nH]1
875 s | CCCCOC(=O)C1=CN(C)S(=O)(=O)N=C1C
664 s | Cc1ccc2oc(=O)c3cc(C(=O)N4CCN(c5ccccn5)CC4)sc3c2c1
794 s | O=C(CCc1ccc2cc[nH]c2c1)NCc1ccccc1
1120 s | COc1cc(OC)c(NC(=O)N2c3ccccc3CC2c2nc(C3CC3)no2)cc1Cl (stereo not drawn)
594 s | CC1(C)C(=O)NCCN1C(=O)CN1C(=O)c2ccccc2C1=O
1030 s | COc1ccc(-c2noc(CS(=O)(=O)c3ccc(Cl)cc3)n2)cc1OC
713 s | COc1ccc(N2CCN(c3ncc(C(=O)O)c(C)n3)CC2)cc1

RP-LC retention time | Structure (SMILES)
1020 s | COc1ccccc1-c1nc(C2CC(=O)N(c3ccc(Cl)cc3)C2)no1 (stereo not drawn)
881 s | Cc1cccc(NS(=O)(=O)c2ccc(-c3c(C)noc3C)cc2)c1
784 s | Cn1ncc2c3ccccc3n(CC(=O)N3CCN(c4ccccc4)CC3)c2c1=O
832 s | Cc1cccc(NC(=O)Cn2c(=O)n(-c3ccccc3)c3ncccc32)c1C
1020 s | Cc1ccc(N2CCN(C(=O)c3c(C)oc4nc(C)nc(N5CCOCC5)c34)CC2)c(C)c1
1140 s | COCCNC(=O)NC1CCN(C2=NS(=O)(=O)C(c3ccc(C)cc3)=C2C)CC1
812 s | O=C(Nc1nc2c(s1)CCC2)c1ccc2c(c1)OCO2
783 s | CCNC(=O)c1nc(C(=O)NC2CCCCC2)cs1
827 s | N#Cc1cccc(N2C=C(C(=O)N3CCCCC3)S(=O)(=O)c3ccc(F)cc32)c1
703 s | O=C(NCc1ccc2c(c1)OCO2)C1CCN(C(=O)C2Sc3ccccc3NC2=O)CC1 (stereo not drawn)
855 s | CCOC(=O)c1cc(C2CC2)nc2c1c(=O)n(Cc1ccc(F)cc1Cl)c(=O)n2C
803 s | O=S(=O)(c1cccn2c(SCc3ccccc3F)nnc12)N1CCCC1
811 s | Cc1nn(-c2ccccc2)c2c1N(CC(=O)NCCC1=CCCCC1)C(=O)CS2
1010 s | COc1ccc(-c2noc(-c3ccc(=O)n(Cc4c(F)cccc4Cl)c3)n2)cc1
551 s | COc1ccc(CN2CCC([C@@H]3CNC[C@H]3CO)CC2)c(Cl)c1OC
661 s | O=C(Nc1cccc(OC(F)(F)F)c1)C1(CCO)CCN(c2ncccn2)C1 (stereo not drawn)
1280 s | O=c1c2sccc2n(Cc2nc(-c3ccc(Cl)c(F)c3)no2)c(=O)n1CCc1ccccc1
741 s | O=c1cccnn1CCCNS(=O)(=O)c1ccc(F)c(C(F)(F)F)c1
691 s | CCn1cc(CCNC(=O)c2ccccc2Cl)c2cccnc21
941 s | O=C(Nc1cccc(-c2noc(C3CC3)n2)c1)c1n[nH]c2c1CCCC2
1130 s | Cc1nn(C)c2nc(OCC(=O)Nc3ccccc3Cl)cc(C(F)(F)F)c12

Structure (SMILES) | RP-LC retention time
COc1ccc2c(c1OC)C(=O)O[C@@H]2[C@H]1c2cc3c(cc2CCN1C)OCO3 | 660 s
